The values that follow come from patent publication US5021413A (priority 1988, dated 1991).

Where a name gives a salt, the structure may show the parent alone.

One experiment addresses T1, μ-receptors (Cavia porcellus, UniProt A0ACM8Q262).
T1 construct: [3H]DAGO (DAMGO) displacement
The arrangement: species or system guinea pig (male Hartley). Conditions: read-out: Binding to opioid receptors, μ (IC50).

The subject of experiment [1] is p-phenylquinone-induced writhing in mice. The experiment can be described thus: animal or person. Conditions: sc; for ED50: Mus musculus, read-out: Analgesic effect, phenylquinone-induced writhing, ED50; for Analgesic effect, phenylquinone-induced writhing at 320 μg/kg (analgesic-effective animals/all animals): mouse, in vivo. The experiment is classed as in vivo, mouse (male ddY mice). (In general: Writhing tests count abdominal constrictions after an irritant is injected.)

For the next experiment, the target named is T2, κ-receptors (Cavia porcellus, UniProt P41144).
T2 construct: A raw preparation from brain membrane was made; tissue Japan SLC; host or cells: guinea pig whole brain without cerebellum, crude membranes
T2 sequence (P41144 whole entry): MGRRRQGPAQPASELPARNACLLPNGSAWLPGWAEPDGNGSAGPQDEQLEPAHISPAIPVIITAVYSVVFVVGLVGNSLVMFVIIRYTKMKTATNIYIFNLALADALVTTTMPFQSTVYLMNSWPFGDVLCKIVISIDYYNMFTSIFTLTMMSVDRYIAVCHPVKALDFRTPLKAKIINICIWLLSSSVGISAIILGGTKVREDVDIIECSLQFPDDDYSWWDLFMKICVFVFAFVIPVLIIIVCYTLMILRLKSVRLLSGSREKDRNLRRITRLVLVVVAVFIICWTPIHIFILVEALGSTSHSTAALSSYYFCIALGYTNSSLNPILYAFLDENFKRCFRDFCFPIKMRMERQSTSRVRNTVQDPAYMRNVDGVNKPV
The experiment in a line: biochemical. It counts as binding, guinea pig (male Hartley).

T1 sequence (A0ACM8Q262 1-400): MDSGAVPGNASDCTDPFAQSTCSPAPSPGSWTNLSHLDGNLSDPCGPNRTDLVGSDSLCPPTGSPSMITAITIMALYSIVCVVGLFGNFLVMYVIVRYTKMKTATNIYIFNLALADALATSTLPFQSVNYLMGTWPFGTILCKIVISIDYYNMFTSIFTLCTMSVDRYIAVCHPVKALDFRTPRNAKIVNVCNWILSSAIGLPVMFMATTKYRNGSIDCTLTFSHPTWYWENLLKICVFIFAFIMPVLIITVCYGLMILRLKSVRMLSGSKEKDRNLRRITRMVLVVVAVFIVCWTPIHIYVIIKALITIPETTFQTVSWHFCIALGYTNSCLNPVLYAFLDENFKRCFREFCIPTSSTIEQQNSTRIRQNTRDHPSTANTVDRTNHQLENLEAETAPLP

Broadly, the IC50 is the concentration that gives 50% inhibition. For orientation: ED50 means the dose that gives a 50% effect, or the effect in half of the subjects. As for `O=C1C[C@H](C(=O)N2CCCC[C@H]2CN2CCCC2)c2cc(Cl)c(Cl)cc21` (relative stereo) [Example 4-D1, 1-[(1S*)-5,6-dichloro-3-oxoindan-1-carbonyl)-(2S*)-2-pyrrolidin-1-ylmethyl)piperidine], the IC50 at μ-receptors was found to be 531 nM; against κ-receptors, 1.4 nM. In experiment [1], the ED50 stood at 3.43 µg/kg.

For the molecule `O=C1C[C@@H](C(=O)N2CCCC[C@H]2CN2CCCC2)c2cc(Cl)c(Cl)cc21` (relative stereo) [Example 4-D2, 1-[(1R*)-5,6-dichloro-3-oxoindan-1-carbonyl](2S*)-2-(pyrrolidin-1-ylmethyl)piperidine], the ED50 in experiment [1] is 270 µg/kg. In addition, the IC50 against κ-receptors is 366 nM.

Consider `O=C([C@H]1CCc2cc(Cl)c(Cl)cc21)N1CCSC[C@@H]1CN1CCCC1` (relative stereo) [Example 41-D1, 4-[(1S*)-5,6-dichloroindan-1-carbonyl]-(3S*)-3-(pyrrolidin-1-ylmethyl)thiomorpholine], for which the IC50 on μ-receptors was 698 nM; against κ-receptors it was 0.67 nM. In addition, the ED50 in experiment [1] came out at 1.3 µg/kg.

Turning to `O=C1CC(C(=O)N2CCCCC2CN2CCCC2)c2cc(Cl)c(Cl)cc21` (stereo not shown) [Example 1, 1-(5,6-dichloro-3-oxoindan-1-carbonyl)-2-(pyrrolidin-1-yl-methyl)piperidinehydrochloride], the IC50 was 1070 nM at μ-receptors and 1.75 nM at κ-receptors. Moreover, the ED50 in experiment [1] is 6.2 µg/kg.

Take `O=C1C[C@H](C(=O)N2CCCC[C@H]2CN2CCCC2)c2cc(Cl)c(Cl)cc21` [Example 2-E1, 1-[(1S)-5,6-dichloro-3-oxoindan-1-carbonyl]-(2S)-2-(pyrrolidin-1-ylmethyl)piperidine]: the results for the IC50 at μ-receptors and on κ-receptors were 232 nM and 0.9 nM, respectively. The ED50 in experiment [1] came to 1.73 µg/kg.

As for `O=C1C[C@@H](C(=O)N2CCCC[C@H]2CN2CCCC2)c2cc(Cl)c(Cl)cc21` [Example 2-E2, 1-[(1R)-5,6-dichloro-3-oxoindan-1-carbonyl]-(2S)-2-(pyrrolidin-1-ylmethyl)piperidine], the ED50 in experiment [1] turned out to be 320 µg/kg. The IC50 on κ-receptors came to 258 nM.

As for `O=C(Cc1ccc(Cl)c(Cl)c1)N1CCSCC1CN1CCCC1` (stereo not shown) [Example 17, 4-(3,4-dichlorophenylacetyl)-3-(pyrrolidin-1-ylmethyl)thiomorpholine hydrochloride], the “Analgesic effect, phenylquinone-induced writhing at 320 μg/kg (analgesic-effective animals/all animals)” value in experiment [1] is reported as 5/5. In addition, the IC50 against κ-receptors was found to be 1.1 nM.

In the case of `O=C1CC(C(=O)N2CCSCC2CN2CCCC2)c2cc(Cl)c(Cl)cc21` (stereo not shown) [Example 36, 4-(5,6-dichloro-3-oxoindan-1-carbonyl)-3-(pyrrolidin-1-ylmethyl)thiomorpholine hydrochloride], the IC50 on μ-receptors came to 1140 nM; at κ-receptors it was 2.4 nM. Besides, the ED50 in experiment [1] is 3.4 µg/kg.

On to `CN1CC[C@]23c4c5ccc(O)c4O[C@H]2[C@@H](O)C=C[C@H]3[C@H]1C5.Cl` [Morphine HCl, reference compound], for which the “Analgesic effect, phenylquinone-induced writhing at 320 μg/kg (analgesic-effective animals/all animals)” value in experiment [1] was 2/5.
